According to patent publication US11452702B2, “Compositions comprising amino acids for use in the treatment of mitochondrial dysfunction-related diseases” (PROFESSIONAL DIETETICS INTERNATIONAL S.R.L., priority 2017, dated 2022):

System: HL-1 cardiomyocytes
Experiment: Oxygen consumption (Clark-type oxygen electrode) in HL-1 cardiomyocytes
Format: cell-based, Mus musculus
Conditions: HL-1 cells, 48 hr treatment, normalized to protein content; FIG. 5
Experimental: Oxygen consumption in HL-1 cardiomyocytes treated with amino acid based compositions or DETA-NO for 48 hr. ****p<0.001 vs. untreated cell; ####p<0.001 vs. BCAAem and B2.
An amount of 1 ml of HL-1 cardiomyocytes treated with the compositions shown in Table 1 was re-suspended in Hank's balanced salt solution (Sigma) and spun down to pellet cells. A number of HL-1 cells was also supplemented with a nitic oxide (NO) donor, specifically with diethylenetriamine-NO also called DETA-NO (Sigma-Aldrich, Milan, Italy), as positive control.
Then, cells were re-suspended in a respiration buffer (0.3 M mannitol, 10 mM KCl, 5 mM MgCl2, 10 mM K2PO4, pH 7.4) at a density of 3.0×10^6/ml.
Samples were analyzed at 37° C. in a gas-tight vessel equipped with a Clark-type oxygen electrode (Rank Brothers Ltd.) connected to a chart recorder.
The oxygen electrode was calibrated assuming the concentration of oxygen in the incubation medium as 200 μmol/l at 37° C.
Oxygen consumption was assessed with continuous mixing for about ten minutes. The slope of the trace recorder was then used to calculate oxygen consumption. Oxygen content may vary depending on the amount of cells. Thus, protein content, which directly correlates with cell content, has been used to normalize the oxygen consumption in cell samples. Protein content was determined by using the bicinchoninic acid protein (BCA) assay.

How did the oxygen consumption turn out when `NCCN(CCN)/[N+]([O-])=N/O` [DETA-NO, diethylenetriamine-NO] was run?
Its oxygen consumption is “rise”.
